S/N and s/n ratio data for 41 substances are collected here from article PMC10977697 (PLOS ONE, 2024).

Where no end group is shown, it is not given here.

One test deals with CD16A. Briefly: Spot phage ELISA, CD16A. Type of test: binding, human. To be noted: spot phage ELISA signal-to-noise on CD16A. (In general: An ELISA detects its analyte on a solid surface through an enzyme-linked reagent.)
Substance “GPTQSHYGQCGGLGYFGQWFCSGTTCQMMSPYGSQCLPGAST (disulfide (positions not given here)) [CD16A CBD 9]” gave a S/N of 8.3.

Substance “GCDSLLQRCKQDSDCLAGCVCTEEHLCG (disulfide (positions not given here)) [CD16A EETI-II 11]” came in with a S/N of 16.8. Same read-out and setting: then “GCDYKLWRCKQDSDCLAGCVCEESQVCG (disulfide (positions not given here)) [CD16A EETI-II 8]”, with 18.2; and “GCADTPWKGKCKQDSDCLAGCVCGPNGFCG (disulfide (positions not given here)) [CD16A EETI-II 20]”, with 15.6. Still for that read-out and setting: then “GCDWLEVECKQDSDCLAGCVCLISPYCG (disulfide (positions not given here)) [CD16A EETI-II 39]”, with 16.3; and “GCQVDPWGHQMDCKQDSDCLAGCVCGPNGFC (disulfide (positions not given here)) [CD16A EETI-II 32]”, with 22.9.

For “GPTQSEGGSCGGIGYSGPTVCASGTTCQVLNPYMSACLPGAS (disulfide (positions not given here)) [CD16A CBD 7]”, the S/N is 14.8. In turn, “GCPWWWVVSCKQDSDCLAGCVCYLQENCG (disulfide (positions not given here)) [CD16A EETI-II 43]” showed a S/N of 16.5. The same measure, in the same setting: then “GCWGFPFPMDCKQDSDCLAGCVCFLWDKCG (disulfide (positions not given here)) [CD16A EETI-II 23]”, with 19.5.

The next test deals with PCSK9.
Assay: not given
The format is binding, human. Particulars: ratio of signal for target protein over BSA background.
As for “GPTQSNYGMCGGIGYSGPTVCASGTTCQVLYPTTSRCLPGAS (also: bicyclic or more (positions not given here)) [PCSK9FL_CBD1]”, the s/n ratio stood at 17.7.

The same test, now with this note: spot phage ELISA signal-to-noise on PCSK9.
The substance “GPTQSTYGQCGGIGYSGPTVCASGTTCQVLWPALSWCLPGAS (disulfide (positions not given here)) [PCSK9 CBD 22]” yielded a S/N of 15.0.

As to “GCGYWWVQWFCKQDSDCLAGCVCGPNGFCD (disulfide (positions not given here)) [PCSK9 EET I-II 18]”, the S/N is reported as 20.1.

In the case of “GPAHSLFGMCGGIDYSGPTVCASGTTCHVLNPTTSHCLPRAS (disulfide (positions not given here)) [PCSK9 CBD 8]”, the S/N stood at 5.0. Substance “GPTQSNYGQCGGIGYSGPTVCASGTTCQVLWPAMSWCLPGAS (disulfide (positions not given here)) [PCSK9 CBD 15]” came in with a S/N of 14.0. Same read-out and setting: then “GPTQSVYGMCGGIGYSGPTVCASGTTCQVLDPTTSQCLPGAS (disulfide (positions not given here)) [PCSK9 CBD 25]”, with 14.9; and “GPTQSEYGMCGGIGYSGPTVCASGTTCQVLDPTTSQCLPGAS (disulfide (positions not given here)) [PCSK9 CBD 10]”, with 7.2. Same read-out and setting: the result for “GPTQSMYGMCGGIGYSGPTVCASGTTCQVLDPNTSQCLPGAS (disulfide (positions not given here)) [PCSK9 CBD 11]” reads 6.9; that for “GCGYWYRIWFCKQDSDCLAGCVCGPNGFCG (disulfide (positions not given here)) [PCSK9 EET I-II 9]”, 9.4; that for “GCNLGYWWKQWFCKQDSDCLAGCVCERPRDCG (disulfide (positions not given here)) [PCSK9 EET I-II 2]”, 6.1. For the substance “GCGYWYRVWFCKQDSDCLAGCVCQEPGPCG (disulfide (positions not given here)) [PCSK9 EET I-II 3]”, the S/N is 6.4. Take “GCGYWWSTWFCKQDSDCLAGCVCGPNGFCG (disulfide (positions not given here)) [PCSK9 EET I-II 4]”: the S/N is given as 15.0.

As to “GCGYWFKMWFCKQDSDCLAGCVCYPGASCG (disulfide (positions not given here)) [PCSK9 EET I-II 8]”, the S/N worked out at 9.7. On to “GPTQSYGQCGGIGYSGPTVCASGTTCQVLWPQVSWCLPGAST (disulfide (positions not given here)) [PCSK9 CBD 6]”, for which the S/N worked out at 2.9. “GPTQSVHGMCGGIGYSGPTVCASGTTCQVLDPFTSQCLPGAS (disulfide (positions not given here)) [PCSK9 CBD 24]” displayed a S/N of 14.8.

“GCHEGYWWRQWFCKQDSDCLAGCVCGPNGFCG (disulfide (positions not given here)) [PCSK9 EET I-II 19]” displayed a S/N of 20.5. On the same count and under the same terms, the result for “GPTQSQFGMCGGIGYSGPTVCASGTTCQVLDPTTSQCLPGAS (disulfide (positions not given here)) [PCSK9 CBD 2]” reads 2.5.

Take “GCWWWGRIHCKQDSDCLAGWGQHCG (disulfide (positions not given here)) [PCSK9 EET I-II 15]”: the S/N amounted to 44.9. “GCQQGYWWWYWFCKQDSDCLAGCVCGPNGFCG (disulfide (positions not given here)) [PCSK9 EET I-II 13]” returned a S/N of 26.0. For the substance “GPTQSEYGMCGGIGYSGPTVCASGTTCQVLDPMTSQCLPGAS (disulfide (positions not given here)) [PCSK9 CBD 3]”, the S/N worked out at 2.6. The same measure, in the same setting: the result for “GPTQSTCGQCGGIGYSGPTVCASGTTCQVLWPTLSWCLPGAS (disulfide (positions not given here)) [PCSK9 CBD 27]” reads 20.8; that for “GCGYWWRQWFCKQGSDCLAGCVCGPNGFCG (disulfide (positions not given here)) [PCSK9 EET I-II 7]”, 20.9. On the same count and under the same terms, the result for “GCGYWFYEWFCKQDSDCLAGCVCDPNGFCG (disulfide (positions not given here)) [PCSK9 EET I-II 20]” reads 9.0.

As for “GPTQSAYGQCGGIGYSGPTVCASGTTCQVLWPQVSWCLPGAS (disulfide (positions not given here)) [PCSK9 CBD 23]”, the S/N turned out to be 13.9. In turn, “GPTQSNYGMCGGIGYSGPTVCASGTTCQVLqPSTSRCLPGAS (disulfide) [PCSK9 CBD 16]” came in with a S/N of 11.6. In turn, “GPTQSDYGMCGGIGYSGPTVCASGTTCQVLDPYTSQCLPGAS (disulfide (positions not given here)) [PCSK9 CBD 28]” yielded a S/N of 14.2.

For “GPTQSHYGLCGGIGYSGPTVCASGTTCQVLSPEFSQCLPGAS (disulfide (positions not given here)) [PCSK9 CBD 13]”, the S/N was determined as 8.0.

In turn, “GPTQSMCGMCGGIGYSGPTVCASGTTCQVLDPHTSQCLPGAS (disulfide (positions not given here)) [PCSK9 CBD 18]” yielded a S/N of 14.0.

In the case of “GPTQSNYGQCGGIGYSGPTVCASGTTCQVLqPAMSWCLPGAS (disulfide) [PCSK9 CBD 21]”, the S/N came out at 18.7. “GCGSHFAPWFGCKQDSDCLSWLCLYAADGLW (disulfide (positions not given here)) [PCSK9 EET I-II 5]”: the S/N is listed as 18.1. The same measure, in the same setting: the result for “GCGYWFKMWFCKQDSDCLAGCVCYPGASCG (disulfide (positions not given here)) [PCSK9 EET I-II 12]” reads 15.5; that for “GCGYWWKHWFCKQDSDCLAGCVCGPNGFCG (disulfide (positions not given here)) [PCSK9 EET I-II 10]”, 12.1.
